Data taken from US9360486B2, “Allergen fragments” (Biomay AG, priority 2007, dated 2016).

Tested on: Amb a 1-specific T cell lines (TCL)
Assay: T cell epitope mapping of Amb a 1.3: proliferation (3H-thymidine uptake) of TCL stimulated with synthetic peptides
Type: cell-based, human
Conditions: for T cell activating region recognized by % of patients: classes of prevalence referring to SI>5, 48 TCL; for No. positive patients SI > 3 / No. positive patients SI > 5 / % (positive patients SI > 3) / % (positive patients SI > 5): TCL from 48 ragweed pollen-allergic patients, peptide 5 μg/ml; for No. positive patients SI > 3 / No. positive patients SI > 5: 3H-thymidine uptake after 48 hrs; for No. positive patients SI > 3 / % (positive patients SI > 3): stimulation index > 3; for No. positive patients SI > 5 / % (positive patients SI > 5): stimulation index > 5
From the text: The T cell response to Amb a 1 was characterized in detail using the established in vitro culture system (Jahn-Schmid et al., J. Immunol. 169: 6005-11, 2002; Jahn-Schmid et al., J. Allergy Clin. Immunol., 115: 399-404, 2005). In total, 85 clinically well-defined patients (75 from Vienna/10 from Milano) with typical case history, positive skin prick test and CAP/RAST tests for ragweed extract were included.
Peripheral blood mononuclear cells (PBMC) were isolated from heparinized blood of allergic patients by Ficoll density gradient centrifugation. To generate allergen-specific T cell lines (TCL) and T cell clones (TCC), 1.5×10^6 PBMC were stimulated with optimal doses of ragweed or mugwort extract (4 μg/ml) or rAmb a 1.3 (10 μg/ml) in 24-well flat-bottomed culture plates (Costar, USA). After 5 days human rIL-2 (10 U/ml, Boehringer, Mannheim, Germany) were added and cultures were continued for additional 7 days. Then, T cell blasts were isolated by density centrifugation. The majority of T cell blasts was further expanded with IL-2 and irradiated PBMC. A small number of T cell blasts were used to establish monoclonal T cell cultures by limiting dilution: 0.3 T cells/well were seeded into 96 well round bottom plates (Nunclone) in the presence of 2×10^5 irradiated (60 Gy) PBMC, 0.25% v/v PHA (Gibco, USA) and rIL-2 (4 U/well) in the medium mentioned above. After 14-21 days, growing microcultures were expanded at weekly intervals with irradiated PBMC and rIL-2. The specificity of TCC was assessed in proliferation assays using irradiated allogeneic or HLA-matched PBMC or irradiated EBV-transformed allogeneic B-cells and 5 μg/ml Amb a 1.3. After 48 hours, cellular uptake of tritiated (^3H)-thymidine was performed to measure proliferation in counts per minute (cpm). When the stimulation index (SI; ratio between cpm obtained in cultures containing TCC plus autologous APC plus antigen, and cpm obtained in cultures containing TCC and APC alone) was >10, responses were considered as positive. Allergen-specific TCC were expanded by alternating turns of stimulation with autologous irradiated APC and allergen or with allogeneic feeder cells and rIL-2.
Amb a 1-specific TCL and TCC were used to identify T cell epitopes of Amb a 1.3. T cell cultures were stimulated with a panel of 121 synthetic 12-mer peptides and one 13-mer representing the C-terminal peptide of Amb a 1.3 (Pepset, Biotrend, Germany). Peptides had been synthesized according to the Amb a 1.3 amino acid sequence and overlapped for 9 amino acid residues with the neighbouring peptides (Table 1). Peptides were used at a concentration of 5 μg/ml for stimulation and proliferation of T cell cultures was determined after 48 hrs by ^3H-thymidine-uptake. Because of the frequently observed high background caused by auto-reactivity in TCL, the mean of the cpm observed with the ten least stimulating peptides (none of the peptides was toxic) was used as negative control in calculations of SI. Throughout this manuscript, a peptide comprised one T cell epitope when the stimulation index was at least 3.0.
T cell epitope mapping of Amb a 1.3 was performed evaluating 48 TCL from different patients ([…]), which had been initiated with ragweed extract (containing the natural allergen) or rAmb a 1.3 (Table 2). TCL induced with either ragweed extract or rAmb a 1.3 from the same individual recognized similar T cell epitopes (Table 2; FIG. 7). […] Therefore, their data were combined for further analysis (Table 3). Typical for many inhalant allergens, multiple T cell activating regions were detected in Amb a 1.3. The number of peptides recognized by T cells from a single individual ranged from 2 to maximum 60 peptides with a mean of 17.8 peptides (median=16/for SI>3; resp. 0-36/11.9/12 for SI>5) (see Table 3). In total, 26 relevant (i.e. recognized by ≧10% of patients studied) T cell activating regions comprising 12-18 aa were identified. […]

Row | Sequence | reactivity with T cells isolated from allergic individuals | T cell activating region recognized by % of patients | No. positive patients SI > 3 | No. positive patients SI > 5 | % (positive patients SI > 3) [%] | % (positive patients SI > 5) [%] | T cell reactivity with samples from individuals suffering from ragweed pollen allergy
1 | GEAAIKLTSSAGVLSCRP (Amb a 1 fragment) [Peptide 118-120] | reactivity with T cells | recognized by 20.8% | – | – | – | – | –
2 | GKWGDVYTVTSN (Amb a 1 fragment) [Peptide 20] | reactivity with T cells | recognized by 14.6% | 9 | 7 | 18.8 | 14.6 | –
3 | GMIKSNDGPPIL (Amb a 1 fragment) [Peptide 52] | reactivity with T cells | recognized by 56.3% | 31 | 27 | 64.6 | 56.3 | high T cell reactivity
4 | GNRFLAPDDQIK (Amb a 1 fragment) [Peptide 96] | reactivity with T cells | – | 5 | 4 | 10.4 | 8.3 | –
5 | GRGVKVEIINGG (Amb a 1 fragment) [Peptide 40] | – | – | 3 | 4 | 6.3 | 8.3 | –
6 | GSSQIWIDHCSL (Amb a 1 fragment) [Peptide 60] | reactivity with T cells | – | 30 | 28 | 62.5 | 58.3 | –
7 | GSSQIWIDHCSLSKS (Amb a 1 fragment) [Peptide 60-61] | reactivity with T cells | – | – | – | – | – | –
8 | GSTHVTISNCKF (Amb a 1 fragment) [Peptide 68] | reactivity with T cells | recognized by 33.3% | 20 | 16 | 41.7 | 33.3 | high T cell reactivity
9 | GVGEILPSVNET (Amb a 1 fragment) [Peptide 2] | – | – | 2 | 1 | 4.2 | 2.1 | –
10 | HVTISNCKFTQQ (Amb a 1 fragment) [Peptide 69] | reactivity with T cells | – | 8 | 4 | 16.7 | 8.3 | –
11 | IDHCSLSKSFDG (Amb a 1 fragment) [Peptide 62] | – | – | 3 | 2 | 6.3 | 4.2 | –
12 | IFVTSGSDPVLT (Amb a 1 fragment) [Peptide 110] | reactivity with T cells | – | 13 | 11 | 27.1 | 22.9 | –
13 | IGGSSAPTILCQ (Amb a 1 fragment) [Peptide 92] | – | – | 3 | 2 | 6.3 | 4.2 | –
14 | IHDVKVLPGGMI (Amb a 1 fragment) [Peptide 49] | – | – | 3 | 2 | 6.3 | 4.2 | –
15 | IIFKNDMVINLN (Amb a 1 fragment) [Peptide 32] | – | – | 2 | 1 | 4.2 | 2.1 | –
16 | IIHNINIHDVKV (Amb a 1 fragment) [Peptide 47] | reactivity with T cells | – | 14 | 10 | 29.2 | 20.8 | –
17 | ILLGADDTHVQD (Amb a 1 fragment) [Peptide 74] | – | – | 3 | 1 | 6.3 | 2.1 | –
18 | ISNCKFTQQSKA (Amb a 1 fragment) [Peptide 70] | – | – | 1 | 1 | 2.1 | 2.1 | –
19 | KADWENNRQALA (Amb a 1 fragment) [Peptide 12] | reactivity with T cells | – | 5 | 1 | 10.4 | 2.1 | –
20 | KGMLATVAFNMF (Amb a 1 fragment) [Peptide 78] | reactivity with T cells | recognized by 12.5% | 11 | 6 | 22.9 | 12.5 | –
21 | KNDMVINLNQEL (Amb a 1 fragment) [Peptide 33] | reactivity with T cells | – | 15 | 13 | 31.3 | 27.1 | –
22 | KNDMVINLNQELVVN (Amb a 1 fragment) [Peptide 33-34] | reactivity with T cells | recognized by 27.1% | – | – | – | – | –
23 | KNIIIHNINIHD (Amb a 1 fragment) [Peptide 46] | reactivity with T cells | – | 10 | 8 | 20.8 | 16.7 | –
24 | KNIIIHNINIHDVKVLPG (Amb a 1 fragment) [Peptide 46-48] | reactivity with T cells | recognized by 20.8% | – | – | – | – | –
25 | KNVLARTGTGAA (Amb a 1 fragment) [Peptide 100] | reactivity with T cells | recognized by 10.4% | 6 | 5 | 12.5 | 10.4 | –
26 | KSNDGPPILRQA (Amb a 1 fragment) [Peptide 53] | reactivity with T cells | – | 5 | 0 | 10.4 | 0.0 | –
27 | LARTGTGAAESM (Amb a 1 fragment) [Peptide 101] | reactivity with T cells | – | 10 | 7 | 20.8 | 14.6 | –
28 | LARTGTGAAESMAWN (Amb a 1 fragment) [101/102] | reactivity with T cells | recognized by 14.6% | – | – | – | – | –
